# Results published in patent publication EP1525798B1, “Carbohydrate oxidase and use thereof in baking” (Novozymes A/S, priority 1997, dated 1999).
# Test system: T1, carbohydrate oxidase from M. nivale (Microdochium nivale CBS 100236, SEQ ID NO: 2), wild type
# T1 construct: made in house
# Test: Steady state kinetics (apparent Km) by the 4AA-TOPS assay
# Type: biochemical
# Conditions: apparent value from Lineweaver-Burke plot, simple Michaelis-Menten kinetics assumed, carbohydrate substrate concentration varied, phosphate/citrate pH 6
# Description: Assays are carried out in 96 well microtiter plates. 100 µl 0.1 M phosphate/citrate, pH 6 is mixed with 50 µl 0.24 M glucose and 50 µl pre-mix (3 mM 4-aminoantipyrine (4AA), 7 mM N-ethyl-N-sulfopropyl-m-toluidine (TOPS), 40 PODU/ml rCiP) and the reaction is started by adding 40 µl of oxidase solution diluted appropriately. Absorption is measured at 490 nm as a function time using the Vmax microtiter plate ready from Molecular Devices and the activity is taken as the slope of the linear increase in absorption.
# Steady state kinetics was conducted by varying the concentration of the carbohydrate substrates and determining the carbohydrate oxidase activity by the 4AA-TOPS assay. Simple Michaelis-Menten kinetics was assumed although the reaction is not a simple one substrate-one product mechanism (E+S↔ES↔E+P).
# The steady state kinetics for the carbohydrate oxidase from M. nivale were investigated using some of the preferred substrates. Kinetic constants were obtained from a Lineweaver-Burke plot, assuming simple Michaelis-Menten kinetics (although this is a rather poor assumption) to obtain apparent values "Km" and "Vmax" for various substrates.
row,Compound,Km [mM]
1,O=C[C@H](O)[C@@H](O)[C@H](O[C@@H]1O[C@H](CO)[C@@H](O)[C@H](O)[C@H]1O)[C@H](O)CO [Cellobiose],59
2,OC[C@H]1O[C@H](O[C@H]2[C@H](O)[C@@H](O)C(O)O[C@@H]2CO)[C@H](O)[C@@H](O)[C@@H]1O (mixture of isomers) [Maltose],11
3,OC[C@H]1OC(O)[C@H](O)[C@@H](O)[C@@H]1O (stereo partly drawn) [Glucose],42
